Source: publication PMC4347201, “The jasmonate-responsive GTR1 transporter is required for gibberellin-mediated stamen development in Arabidopsis” (Nature Communications, 2015)

Assays:
GTR2/NPF2.11 = target: T1, GTR2/NPF2.11 (Arabidopsis thaliana, UniProt Q9LV10); experiment: uptake into Xenopus oocytes, UPLC/TOFMS; assay type: cell-based; details: pH 5, 24 h uptake, kulori-based buffer
T1 construct: forward primer starts ATGGAGAGAAAGCCTCTTG
T1 sequence (Q9LV10 1-616): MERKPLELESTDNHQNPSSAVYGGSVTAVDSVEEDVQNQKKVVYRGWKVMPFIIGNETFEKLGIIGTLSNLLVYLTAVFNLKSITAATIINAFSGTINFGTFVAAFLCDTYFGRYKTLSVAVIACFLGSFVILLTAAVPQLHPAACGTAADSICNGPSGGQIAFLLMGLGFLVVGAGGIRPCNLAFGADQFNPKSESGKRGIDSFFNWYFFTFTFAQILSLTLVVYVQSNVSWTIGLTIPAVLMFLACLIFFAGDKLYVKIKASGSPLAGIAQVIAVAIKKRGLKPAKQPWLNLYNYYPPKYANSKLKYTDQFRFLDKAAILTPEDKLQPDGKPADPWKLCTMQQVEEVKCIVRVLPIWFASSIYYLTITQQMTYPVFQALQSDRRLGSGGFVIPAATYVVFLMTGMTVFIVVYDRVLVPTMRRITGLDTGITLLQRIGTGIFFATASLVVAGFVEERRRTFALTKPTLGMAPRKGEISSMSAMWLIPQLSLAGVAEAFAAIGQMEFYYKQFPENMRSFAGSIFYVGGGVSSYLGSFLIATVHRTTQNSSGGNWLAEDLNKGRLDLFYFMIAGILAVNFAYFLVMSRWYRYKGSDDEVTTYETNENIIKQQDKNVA

[1] = substrate: C=C1C[C@]23C[C@@]1(O)CC[C@H]2[C@@]12C=C[C@H](O)[C@@](C)(C(=O)O1)[C@H]2[C@@H]3C(=O)O; experiment: uptake into Xenopus oocytes, UPLC/TOFMS; assay type: cell-based, Arabidopsis thaliana; details: pH 5.0, 17 °C, 24 h uptake, kulori-based buffer, 1-2,000 μM GA3

C=C1C[C@]23C[C@@]1(O)CC[C@H]2[C@@]12C=C[C@H](O)[C@@](C)(C(=O)O1)[C@H]2[C@@H]3C(=O)O [GA3]
uptake into Xenopus oocytes, UPLC/TOFMS (GTR2/NPF2.11): GTR2, a close homologue of GTR1, also transported GA3 into oocytes

B1: GTR1/NPF2.10 (Arabidopsis thaliana) (protein)
chain: MKSRVILNHRDRRDKNHNNNNTNHYTQVDTMERKPLEVEPSTTTTNTDVVDSFEEEQRKIVYRGWKVMPFIIGNETFEKLGIIGTLSNLLVYLTSVFNLKSYTAATIINAFSGTINFGTFIAAFLCDTYFGRYKTLSVAVIACFLGSFVILLTAAIPSLHPVACGNKISCEGPSVGQILFLLMGLGFLVVGAGGIRPCNLAFGADQFNPKSESGKKGINSFFNWYFFTFTFAQIISLTAVVYIQSNVSWTIGLIIPVALMFLACVIFFAGDRLYVKVKASGSPLAGIARVIAAAIKKRGLKPVKQPWVNLYNHIPSNYANTTLKYTDQFRFLDKAAIMTPEEKLNSDGTASDPWKLCTLQQVEEVKCIVRVIPIWFASTIYYLAITIQMTYPVFQALQSDRRLGSGGFRIPAATYVVFLMTGMTVFIIFYDRVLVPSLRRVTGLETGISLLQRIGAGFTFAIMSLLVSGFIEERRRNFALTKPTLGMAPRTGEISSMSALWLIPQLTLAGIAEAFAAIGQMEFYYKQFPENMKSFAGSIFYVGAGVSSYLASFLISTVHRTTAHSPSGNWLAEDLNKAKLDYFYFMLTGLMVVNMAYFLLMARWYRYKGGNDEDITEIETNEEETKQQQLQDKNSV
Km [1]: 301.25 ± 225.46 µM
